Results as given in the supplement of paper PMC10883282.

Experiments:
Test in all cases: relative viability vs DMSO control (72 h) (fraction); higher = more viable cells
[1] = test system: SK-ES-1
Procedure, shortened: (§1)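 Relative viability is percent growth read by ATPLite and averaged over up to triplicate wells. Sarcoma cells were seeded in 384-well plates to reach 80–90% confluence and given 2.5 µl of serially diluted compound after 24 h, from source plates of 10 mM to 0.0002 mM. Incubation lasted 72 h at 37 °C, 5% CO2, with 0.1% DMSO vehicle and a 5 µM positive control, and the data were rescaled so 1 equals full and 0 equals none.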

[2] = test system: SW982
Procedure, shortened: as §1

[3] = test system: A204
Procedure, shortened: as §1

[4] = test system: MES-SA
Procedure, shortened: as §1

[5] = test system: RD
Procedure, shortened: as §1

[6] = test system: HS729
Procedure, shortened: as §1

[7] = test system: SK-LMS-1
Procedure, shortened: as §1

[8] = test system: SW1353
Procedure, shortened: as §1

[9] = test system: SW872
Procedure, shortened: as §1

[10] = test system: G401
Procedure, shortened: as §1

[11] = test system: VA-ES-BJ
Procedure, shortened: as §1

[12] = test system: KHOS-240S
Procedure, shortened: as §1

C[C@@H]1COC(Nc2ccc3ncnc(Nc4ccc(OCc5nccs5)c(Cl)c4)c3c2)=N1 [Varlitinib]
Conditions	relative viability
[1], 0.00017 µM	0.975
[1], 0.00051 µM	0.974
[1], 0.00152 µM	0.976
[1], 0.00457 µM	0.99
[1], 0.01372 µM	0.971
[1], 0.04115 µM	0.997
[1], 0.1235 µM	0.967
[1], 0.3704 µM	0.962
[1], 1.111 µM	0.948
[1], 3.333 µM	0.873
[1], 10 µM	0.671
[2], 0.00017 µM	0.982
[2], 0.00051 µM	1.01
[2], 0.00152 µM	0.966
[2], 0.00457 µM	0.974
[2], 0.01372 µM	0.986
[2], 0.04115 µM	0.993
[2], 0.1235 µM	0.984
[2], 0.3704 µM	0.932
[2], 1.111 µM	0.918
[2], 3.333 µM	0.949
[2], 10 µM	0.883
[3], 0.00017 µM	1.06
[3], 0.00051 µM	1.06
[3], 0.00152 µM	1.07
[3], 0.00457 µM	1.06
[3], 0.01372 µM	1.08
[3], 0.04115 µM	1.11
[3], 0.1235 µM	1.06
[3], 0.3704 µM	1.01
[3], 1.111 µM	0.905
[3], 3.333 µM	0.763
[3], 10 µM	0.258
[4], 0.00017 µM	0.965
[4], 0.00051 µM	0.965
[4], 0.00152 µM	0.934
[4], 0.00457 µM	0.97
[4], 0.01372 µM	0.946
[4], 0.04115 µM	0.9545
[4], 0.1235 µM	0.945
[4], 0.3704 µM	0.888
[4], 1.111 µM	0.888
[4], 3.333 µM	0.807
[4], 10 µM	0.45
[5], 0.00017 µM	0.983
[5], 0.00051 µM	0.984
[5], 0.00152 µM	0.997
[5], 0.00457 µM	1.02
[5], 0.01372 µM	0.998
[5], 0.04115 µM	1.02
[5], 0.1235 µM	1.05
[5], 0.3704 µM	1
[5], 1.111 µM	1.04
[5], 3.333 µM	1.05
[5], 10 µM	1.05
[6], 0.00017 µM	1.08
[6], 0.00051 µM	1.05
[6], 0.00152 µM	1.08
[6], 0.00457 µM	1.06
[6], 0.01372 µM	1.03
[6], 0.04115 µM	1.05
[6], 0.1235 µM	0.993
[6], 0.3704 µM	0.994
[6], 1.111 µM	0.9668
[6], 3.333 µM	0.931
[6], 10 µM	0.76
[7], 0.00017 µM	1.01
[7], 0.00051 µM	1.033
[7], 0.00152 µM	1.06
[7], 0.00457 µM	1
[7], 0.01372 µM	1.02
[7], 0.04115 µM	1.04
[7], 0.1235 µM	1.04
[7], 0.3704 µM	1.04
[7], 1.111 µM	1.04
[7], 3.333 µM	0.976
[7], 10 µM	0.872
[8], 0.00017 µM	1.03
[8], 0.00051 µM	0.981
[8], 0.00152 µM	0.968
[8], 0.00457 µM	1.04
[8], 0.01372 µM	0.978
[8], 0.04115 µM	1.01
[8], 0.1235 µM	0.947
[8], 0.3704 µM	0.886
[8], 1.111 µM	0.824
[8], 3.333 µM	0.812
[8], 10 µM	0.738
[9], 0.00017 µM	1.09
[9], 0.00051 µM	1.07
[9], 0.00152 µM	1.1
[9], 0.00457 µM	1.08
[9], 0.01372 µM	1.065
[9], 0.04115 µM	1.08
[9], 0.1235 µM	1.05
[9], 0.3704 µM	1.04
[9], 1.111 µM	0.993
[9], 3.333 µM	0.939
[9], 10 µM	0.743
[10], 0.00017 µM	0.96
[10], 0.00051 µM	0.979
[10], 0.00152 µM	0.993
[10], 0.00457 µM	0.966
[10], 0.01372 µM	0.981
[10], 0.04115 µM	0.993
[10], 0.1235 µM	0.973
[10], 0.3704 µM	0.939
[10], 1.111 µM	0.8904
[10], 3.333 µM	0.8118
[10], 10 µM	0.663
[11], 0.00017 µM	1.06
[11], 0.00051 µM	1.06
[11], 0.00152 µM	1.05
[11], 0.00457 µM	1.04
[11], 0.01372 µM	1.08
[11], 0.04115 µM	1.07
[11], 0.1235 µM	1.12
[11], 0.3704 µM	1.09
[11], 1.111 µM	1.05
[11], 3.333 µM	1.06
[11], 10 µM	0.96
[12], 0.00017 µM	1.02
[12], 0.00051 µM	1.03
[12], 0.00152 µM	1.02
[12], 0.00457 µM	1.05
[12], 0.01372 µM	1.048
[12], 0.04115 µM	1.05
[12], 0.1235 µM	1.05
[12], 0.3704 µM	0.996
[12], 1.111 µM	0.9899
[12], 3.333 µM	0.947
[12], 10 µM	0.849
